ChEMBL document CHEMBL3217560, “Synthesis and binding affinities for sst receptors of cyclic peptoid SRIF-mimetics” (Medchemcomm, 2012)
Positions of bridges follow the written chain, without caps; N, C: chain ends. Non-standard residues stand in square brackets, D forms with d. Residues, ends and D or L forms follow the SMILES beside them. *: point of attachment. Threoninol(2S,3R) = C[C@@H](O)[C@H](CO)N*

Legend:
[1] = molecular target: Somatostatin receptor type 1 (Homo sapiens, UniProt P30872); test: Displacement of [125I]-somatostatin from human sst1 receptor after 2 hrs by beta scintillation counting analysis
Somatostatin receptor type 1, sequence (P30872 whole entry): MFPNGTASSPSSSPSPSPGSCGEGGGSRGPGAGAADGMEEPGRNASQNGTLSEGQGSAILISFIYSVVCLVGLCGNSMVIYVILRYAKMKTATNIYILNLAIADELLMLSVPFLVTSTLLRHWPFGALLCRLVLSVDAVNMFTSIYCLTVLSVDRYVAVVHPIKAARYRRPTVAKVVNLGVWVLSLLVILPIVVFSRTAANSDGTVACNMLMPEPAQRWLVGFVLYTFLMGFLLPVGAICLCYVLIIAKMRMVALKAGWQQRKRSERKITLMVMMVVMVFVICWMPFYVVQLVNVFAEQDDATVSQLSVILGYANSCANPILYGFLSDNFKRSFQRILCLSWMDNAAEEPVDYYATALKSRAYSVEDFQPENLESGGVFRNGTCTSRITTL

[2] = molecular target: Somatostatin receptor type 2 (Homo sapiens, UniProt P30874); test: Displacement of [125I]-somatostatin from human sst2a receptor after 2 hrs by beta scintillation counting analysis
Somatostatin receptor type 2, sequence (P30874 whole entry): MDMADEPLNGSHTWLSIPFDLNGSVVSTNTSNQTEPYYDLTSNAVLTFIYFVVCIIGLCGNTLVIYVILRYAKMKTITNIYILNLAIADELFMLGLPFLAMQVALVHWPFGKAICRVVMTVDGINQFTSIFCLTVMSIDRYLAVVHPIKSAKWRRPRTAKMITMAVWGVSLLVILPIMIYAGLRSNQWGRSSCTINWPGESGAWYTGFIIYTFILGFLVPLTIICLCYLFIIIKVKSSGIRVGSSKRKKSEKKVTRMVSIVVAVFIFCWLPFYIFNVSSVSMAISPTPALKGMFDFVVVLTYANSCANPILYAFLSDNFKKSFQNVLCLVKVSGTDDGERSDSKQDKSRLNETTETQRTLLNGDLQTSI

[3] = molecular target: Somatostatin receptor type 3 (Homo sapiens, UniProt P32745); test: Displacement of [125I]-somatostatin from human sst3 receptor after 2 hrs by beta scintillation counting analysis
Somatostatin receptor type 3, sequence (P32745 whole entry): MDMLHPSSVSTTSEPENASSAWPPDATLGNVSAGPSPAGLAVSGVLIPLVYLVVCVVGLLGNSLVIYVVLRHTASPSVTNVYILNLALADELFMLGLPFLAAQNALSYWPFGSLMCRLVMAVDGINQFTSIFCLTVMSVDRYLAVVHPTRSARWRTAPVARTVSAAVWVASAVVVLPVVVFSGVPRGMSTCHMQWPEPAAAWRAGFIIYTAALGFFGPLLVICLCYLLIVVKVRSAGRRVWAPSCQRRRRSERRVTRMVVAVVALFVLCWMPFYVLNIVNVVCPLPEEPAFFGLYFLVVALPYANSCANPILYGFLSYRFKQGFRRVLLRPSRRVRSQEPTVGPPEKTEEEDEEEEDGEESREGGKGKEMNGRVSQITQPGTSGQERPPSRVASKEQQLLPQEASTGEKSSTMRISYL

[4] = molecular target: Somatostatin receptor type 4 (Homo sapiens, UniProt P31391); test: Displacement of [125I]-somatostatin from human sst4 receptor after 2 hrs by beta scintillation counting analysis
Somatostatin receptor type 4, sequence (P31391 whole entry): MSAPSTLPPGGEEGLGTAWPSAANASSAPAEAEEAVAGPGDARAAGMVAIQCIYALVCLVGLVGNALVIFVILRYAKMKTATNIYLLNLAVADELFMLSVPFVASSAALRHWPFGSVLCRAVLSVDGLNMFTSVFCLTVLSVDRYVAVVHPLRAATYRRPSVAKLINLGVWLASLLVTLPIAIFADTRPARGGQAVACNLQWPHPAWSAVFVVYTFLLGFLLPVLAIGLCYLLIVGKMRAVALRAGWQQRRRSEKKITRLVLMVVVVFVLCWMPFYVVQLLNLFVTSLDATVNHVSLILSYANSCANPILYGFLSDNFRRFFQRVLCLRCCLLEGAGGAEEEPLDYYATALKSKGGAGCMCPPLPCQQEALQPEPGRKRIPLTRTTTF

[5] = molecular target: Somatostatin receptor type 5 (Homo sapiens, UniProt P35346); test: Displacement of [125I]-somatostatin from human sst5 receptor after 2 hrs by beta scintillation counting analysis
Somatostatin receptor type 5, sequence (P35346 whole entry): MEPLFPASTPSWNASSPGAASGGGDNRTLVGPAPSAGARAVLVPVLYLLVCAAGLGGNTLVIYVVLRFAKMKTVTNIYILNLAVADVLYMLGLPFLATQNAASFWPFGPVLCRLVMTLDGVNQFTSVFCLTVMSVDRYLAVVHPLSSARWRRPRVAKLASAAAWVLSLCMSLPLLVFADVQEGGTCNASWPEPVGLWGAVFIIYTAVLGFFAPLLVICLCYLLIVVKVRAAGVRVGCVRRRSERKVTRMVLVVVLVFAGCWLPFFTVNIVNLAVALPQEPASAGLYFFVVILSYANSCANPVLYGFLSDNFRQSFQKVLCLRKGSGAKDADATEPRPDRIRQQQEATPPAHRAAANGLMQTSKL

[6] = organism: Homo sapiens; test: Selectivity ratio of Ki for human sst1 receptor to Ki for human sst4 receptor
[7] = organism: Homo sapiens; test: Selectivity ratio of Ki for human sst2a receptor to Ki or human sst4 receptor

Row | SMILES | Ki [1] [µM] | inhibition [1] | Ki [2] [µM] | inhibition [2] | Ki [3] [µM] | inhibition [3] | Ki [4] [µM] | inhibition [4] | Ki [5] [µM] | inhibition [5] | Ratio Ki [6] | Ratio Ki [7]
1 | C[C@@H](O)CN1CCC(=O)N(Cc2ccccc2)CCC(=O)N(Cc2ccccc2)CCC(=O)N(CCc2c[nH]c3ccccc23)CCC(=O)N(CCCCN)CCC1=O | 8.2 | Dose-dependent effect | 44 | Dose-dependent effect | 4.6 | Dose-dependent effect | 10 | Dose-dependent effect | 1.7 | Dose-dependent effect | – | –
2 | C[C@@H](O)[C@H](CO)NC(=O)[C@@H]1CSSC[C@H](NC(=O)[C@H](N)Cc2ccccc2)C(=O)N[C@@H](Cc2ccccc2)C(=O)N[C@H](Cc2c[nH]c3ccccc23)C(=O)N[C@@H](CCCCN)C(=O)N[C@@H]([C@@H](C)O)C(=O)N1 (H-[dF]CF[dW]KTC-{Threoninol(2S,3R)}; disulfide 2-7) | – | Dose-dependent effect | – | Dose-dependent effect | – | Dose-dependent effect | – | Dose-dependent effect | – | – | – | –
3 | COC(=O)CCN(Cc1ccccc1)C(=O)CCN(C[C@@H](C)O)C(=O)CCN(CCCCN)C(=O)CN(CCc1c[nH]c2ccccc12)C(=O)CCN(Cc1ccccc1)C(C)=O | 16 | Dose-dependent effect | 110 | Dose-dependent effect | 3.1 | Dose-dependent effect | 21 | Dose-dependent effect | 13.2 | Dose-dependent effect | – | –
4 | C[C@@H](O)CN1CCC(=O)N(Cc2ccccc2)CCC(=O)N(CCc2c[nH]c3ccccc23)CC(=O)N(CCCCN)CCC1=O | 153 | Dose-dependent effect | 176 | Dose-dependent effect | 17 | Dose-dependent effect | 20 | Dose-dependent effect | 9.5 | Dose-dependent effect | – | –
5 | C[C@@H](O)CN1CCC(=O)N(Cc2ccccc2)CCC(=O)N(CCc2c[nH]c3ccccc23)CCC(=O)N(CCCCN)CCC1=O | 102 | Dose-dependent effect | 198 | Dose-dependent effect | 22 | Dose-dependent effect | 4.9 | Dose-dependent effect | 28 | Dose-dependent effect | 20 | 40
6 | COC(=O)CCN(Cc1ccccc1)C(=O)CCN(C[C@@H](C)O)C(=O)CCN(CCCCN)C(=O)CCN(CCc1c[nH]c2ccccc12)C(=O)CCN(Cc1ccccc1)C(C)=O | 12 | Dose-dependent effect | 55 | Dose-dependent effect | 2.7 | Dose-dependent effect | 12 | Dose-dependent effect | 11 | Dose-dependent effect | – | –
7 | C[C@@H](O)CN1CCC(=O)N(Cc2ccccc2)CCC(=O)N(Cc2ccccc2)CCC(=O)N(CCc2c[nH]c3ccccc23)CC(=O)N(CCCCN)CCC1=O | 16 | Dose-dependent effect | 27 | Dose-dependent effect | 2.4 | Dose-dependent effect | 7.2 | Dose-dependent effect | 2.1 | Dose-dependent effect | – | –
